# Where a name gives a salt, the structure may show the parent alone. Read-outs that look alike come from different tables or passages of the source.
# Key:
# [1] = system: Staphylococcus aureus ATCC 6538; experiment: agar well diffusion assay, S. aureus; assay type: cell-based; details: read-out: width of the clear zone of inhibition, S. aureus
# Experimental: (§1) Bacterial test organisms were cultured in Eugonager and Eugonbroth (BBL), and fungi and yeasts were cultured in Mycophil (BBL) agar and broth. Antimicrobial activity was recorded as the width (in millimeters) of the clear zone of inhibition surrounding the agar well.
# (§2) Qualitative evaluation of antimicrobial activity of the inventive extracts, fractions, and pure compounds was accomplished using an agar well diffusion assay. As set out hereinbefore, the inventive compositions were tested for activity against the following microorganisms: Staphylococcus aureus ATCC 6538; Escherichia coli ATCC 10536; Mycobacterium smegmatis ATCC 607; Pseudomonas aeruginosa ATCC 15442; Candida albicans ATCC 10321; Saccharomyces cerevisiae ATCC 9763; and Asperigillus niger ATCC 16888. In addition, the compounds of the preferred embodiments were also tested against Bacillus subtilis ATCC 6633. Bacterial test organisms were cultured in Eugonagar and Eugonbroth (BBL), and fungi and yeasts were cultured in Mycophil (BBL) agar and broth.
# (§3) Plates for assay were prepared by uniformly seeding sterily, partially cooled, molten agar with dilutions of test organisms grown in broth or suspensions of conidia produced on agar slants (A. niger). The seeded agar medium was dispensed into 100 × 15 mm sterile petri dishes (15 ml per dish). Cylindrical plugs were removed from the solidified agar plates, using a sterile cork borer, to produce wells having a diameter of approximately 11 mm. One hundred microliters of a solution or suspension of an extract, fraction, or pure compound was added to each well. The extracts and fractions were tested as solutions or suspensions in a concentration of 20 mg/ml; pure compounds were tested at 1 mg/ml. When solvents other than water were required to dissolve extracts or compounds, solvent blanks were run against each test organism.
# (§4) Plates prepared as described above were incubated as follows: Bacteria were grown at 37° C. for 24 hours, with the exception of M. smegmatis, which grows more slowly and requires incubation at 37° C. for 48 hours, before reading. Fungi or yeast were incubated at 25° C. for 24 hours, before growth was evident.
# (§5) Antimicrobial activity was recorded as the width (in mm) of the clear zone of inhibition surrounding the agar well.
# [2] = system: Bacillus subtilis ATCC 6633; experiment: agar well diffusion assay, B. subtilis; assay type: cell-based; details: read-out: width of the clear zone of inhibition, B. subtilis
# Experimental: as §1, §2, §3, §4, §5
# [3] = system: Mycobacterium smegmatis ATCC 607; experiment: agar well diffusion assay, M. smegmatis; assay type: cell-based; details: Mycolicibacterium smegmatis, read-out: width of the clear zone of inhibition, M. smegmatis
# Experimental: as §1, §2, §3, §4, §5
# [4] = system: Candida albicans; experiment: agar well diffusion assay, C. albicans; assay type: cell-based; details: read-out: width of the clear zone of inhibition, C. Albicans
# Experimental: as §1, §2, §3, §4, §5
# [5] = system: Saccharomyces cerevisiae ATCC 9763; experiment: agar well diffusion assay, S. cerevisiae; assay type: cell-based; details: read-out: width of the clear zone of inhibition, S. cerevisiae
# Experimental: as §1, §2, §3, §4, §5
# [6] = system: Asperigillus niger ATCC 16888; experiment: agar well diffusion assay, A. niger; assay type: cell-based; details: Aspergillus niger, read-out: width of the clear zone of inhibition, A. niger
# Experimental: as §1
# as §2, with “broth. […]” for “broth.”
# Plates prepared as described above were incubated as follows: Bacteria were grown at 37° C. for 24 hours, with the exception of M. smegmatis, which grows more slowly and requires incubation at 37° C. for 48 hours, before reading. […]
# as §5
# [7] = system: S. aureus; experiment: two-fold serial dilution assay (MIC), S. aureus; assay type: cell-based; details: Staphylococcus aureus; 24 hours; read-out: Minimum Inhibitory Concentration, S. aureus
# Source text: (§6) Quantitive assay of antimicrobial activity of the inventive compositions against selected test organisms was made using a two-fold serial dilution in Eugonbroth or Mycophil broth. The concentration of pure alkaloids in the initial dilution tube was 50 mcg/ml. Streptomycin sulfate (Nutrional Biochemical) and amphotericin B (Calbiochem "A" grade) at the same concentrations as above were used as standard antibiotics for comparison with the activities of the alkaloids against bacteria and yeast species, respectively. Cultures used in the serial dilution assay included S. aureus, B. subtilis, M. smegmatis, C. albicans, and S. cerevisiae. Readings were taken after incubation times of 24 hours for all organisms except M. smegmatis, which was read at 72 hours. The concentration mcg/ml of the tube of highest dilution which was free from growth was recorded as the minimal inhibitory concentration in Table 3.
# [8] = system: B. subtilis; experiment: two-fold serial dilution assay (MIC), B. subtilis; assay type: cell-based; details: Bacillus subtilis, read-out: Minimum Inhibitory Concentration, R. Subtilis
# Source text: as §6
# [9] = system: M. smegmatis; experiment: two-fold serial dilution assay (MIC), M. smegmatis; assay type: cell-based, Mycobacterium smegmatis; details: Mycolicibacterium smegmatis, read-out: Minimum Inhibitory Concentration, M. Smegmatis
# Source text: as §6
# [10] = system: C. albicans; experiment: two-fold serial dilution assay (MIC), C. albicans; assay type: cell-based, Candida albicans; details: for MIC: Candida albicans, read-out: Minimum Inhibitory Concentration, C. Albicans
# Source text: as §6
# [11] = system: S. cerevisiae; experiment: two-fold serial dilution assay (MIC), S. cerevisiae; assay type: cell-based; details: Saccharomyces cerevisiae, read-out: Minimum Inhibitory Concentration, S. cerevisiae
# Source text: as §6
# [12] = system: test organisms; experiment: qualitative antimicrobial activity of extracts, fractions and compounds; assay type: cell-based; details: text statement on extracts, fractions, compounds
# Experimental: Qualitative evaluation of antimicrobial activity of the inventive extracts, fractions, and pure compounds was accomplished using an agar well diffusion assay. As set out hereinbefore, the inventive compositions were tested for activity against the following microorganisms: Staphylococcus aureus ATCC 6538; Escherichia coli ATCC 10536; Mycobacterium smegmatis ATCC 607; Pseudomonas aeruginosa ATCC 15442; Candida albicans ATCC 10321; Saccharomyces cerevisiae ATCC 9763; and Asperigillus niger ATCC 16888. […] Bacterial test organisms were cultured in Eugonagar and Eugonbroth (BBL), and fungi and yeasts were cultured in Mycophil (BBL) agar and broth.
# [13] = system: S. aureus, B. subtilis, M. smegmatis, C. albicans, and S. cerevisiae; experiment: two-fold serial dilution assay, activity overall against bacteria and yeasts; assay type: cell-based; details: from the data in Table 3
# Source text: as §6
# [14] = ATCC6538, 37° C., 24 hours, extracts and fractions 20 mg/ml, pure compounds 1 mg/ml, 100 microliters per well
# [15] = ATCC6633, 37° C., 24 hours, pure compounds 1 mg/ml, 100 microliters per well
# [16] = ATCC607, 37° C., 48 hours, extracts and fractions 20 mg/ml, pure compounds 1 mg/ml, 100 microliters per well
# [17] = 25° C., 24 hours, extracts and fractions 20 mg/ml, pure compounds 1 mg/ml, 100 microliters per well
# [18] = ATCC9763, 25° C., 24 hours, pure compounds 1 mg/ml, 100 microliters per well
SMILES,"zone of inhibition at 1000 µg/mL ([1]; ATCC6538, 24 h)","zone of inhibition at 1000 µg/mL ([2]; ATCC6633, 24 h)","zone of inhibition at 1000 µg/mL ([3]; ATCC607, 48 h)",zone of inhibition at 1000 µg/mL ([4]; 24 h),"zone of inhibition at 1000 µg/mL ([5]; ATCC9763, 24 h)",MIC [7],MIC ([8]; 24 h),MIC ([9]; 72 h),MIC ([10]; 24 h),MIC ([11]; 24 h),antimicrobial activity (in words) [12],in vitro activity compared with standard antibiotics or other alkaloids [13],"zone of inhibition at 1000 µg/mL [1, 14]","zone of inhibition at 1000 µg/mL [2, 15]","zone of inhibition at 1000 µg/mL [3, 16]","zone of inhibition at 1000 µg/mL [4, 17]","zone of inhibition at 1000 µg/mL [5, 18]",MIC ([8]; 24 hours),MIC ([9]; 72 hours),MIC ([10]; 24 hours),further results
O=C1c2ccccc2-c2c3c(cc4ccnc1c24)OCO3 [liriodenine],5 mm,8 mm,11 mm,3 mm,5 mm,3.1 mg/L,0.39 mg/L,1.56 mg/L,6.2 mg/L,6.2 mg/L,exhibited antimicrobial activity,in vitro activity comparable to that of streptomycin sulfate and amphotericin B,,,,,,,,,"zone of inhibition at 1000 µg/mL ([6]; ATCC16888, 24 h): 11 mm; antimicrobial activity (in words) ([12]; listed as Liriodenine): contained all of the antimicrobial activity in this fraction"
C[n+]1ccc2cc3c(c4c2c1C(=O)c1ccccc1-4)OCO3 [liriodenine methiodide],,,,,,6.2 mg/L,,,,,,in vitro activity comparable to that of streptomycin sulfate and amphotericin B,6 mm,6 mm,14 mm,17 mm,15 mm,3.1 mg/L,3.1 mg/L,0.78 mg/L,"zone of inhibition at 1000 µg/mL ([6]; ATCC16888, 25° C., 24 hours, extracts and fractions 20 mg/ml, pure compounds 1 mg/ml, 100 microliters per well): 4 mm; MIC ([11]; 24 hours): 3.1 mg/L"
"[H]/N=C(/N)N[C@H]1[C@H](O)[C@@H](O)[C@H](O[C@@H]2O[C@@H](C)[C@](O)(C=O)[C@H]2O[C@@H]2O[C@@H](CO)[C@H](O)[C@@H](O)[C@@H]2NC)[C@@H](N/C(N)=N\[H])[C@@H]1O [streptomycin sulfate, reference compound]",,,,,,3.1 mg/L,1.56 mg/L,0.78 mg/L,,,,,,,,,,,,,
COc1cc2cc3c4c(cc(OC)c(OC)c4c2cc1OC)CCN3C [dehydroglaucine],4 mm,7 mm,8 mm,6 mm,6 mm,25 mg/L,25 mg/L,25 mg/L,25 mg/L,50 mg/L,exhibited antimicrobial activity,,,,,,,,,,antimicrobial activity (in words) ([12]; listed as Dehydroglaucine): exhibit all of the antimicrobial activity in that Fraction
COc1cc2c(cc1OC)-c1c(OC)c(OC)cc3cc[n+](C)c(c13)C2=O [oxoglaucine methiodide],,,,,,25 mg/L,,,,,,,9 mm,9 mm,10 mm,10 mm,11 mm,25 mg/L,25 mg/L,1.56 mg/L,activity against C. albicans (in words) ([10]; from the data in Table 3): particularly active against C. albicans; MIC ([11]; 24 hours): 25 mg/L
"C[C@@H]1[C@H](O)[C@@H](C)/C=C/C=C/C=C/C=C/C=C/C=C/C=C/[C@H](O[C@@H]2O[C@H](C)[C@@H](O)[C@H](N)[C@@H]2O)C[C@@H]2O[C@](O)(C[C@@H](O)C[C@@H](O)[C@H](O)CC[C@@H](O)C[C@@H](O)CC(=O)O[C@H]1C)C[C@H](O)[C@H]2C(=O)O [amphotocericin B, amphotericin B, reference compound]",,,,,,,,,0.78 mg/L,0.78 mg/L,,,,,,,,,,,

# From patent US4093717A, “Antimicrobial compositions” (University of Mississippi, priority 1975, dated 1978)
